Experimental data taken from patent publication US5314908A, “Compounds useful as antiproliferative agents” (Whitby Research, Inc., priority 1992, dated 1994).
“Also recorded” adds a separate entry of the source.

Assays:
[1] = Frohn et al.; Clemens et al.; cited from earlier work
MCF-7 cells [2] = assay: growth inhibition of estrogen positive human breast cancer cell line MCF-7 in culture; type: cell-based; settings: for inhibition of MCF-7 cell growth, by concentration: 10^-15 M to 10^-5 M, inhibitory = proliferation decreased by 20% or more vs controls; for comparative assessment of potency / maximal inhibition, MCF-7 cell growth: summary statement; for potency relative to melatonin (times more potent), MCF-7 cell growth: compared with melatonin IC50
Description: (§1) The above examples were tested for their ability to inhibit the growth of both estrogen positive (MCF-7) and estrogen negative (Hs0578t) human breast cancer cell lines in culture. […] MCF-7 cells were maintained in Dulbecco's modified Eagle's medium (DMEM), supplemented with 10% fetal bovine serum (FBS), penicillin (10,000 units/ml) and streptomycin (10 mg/ml) at 37° C. in a humidified atmosphere containing 5% CO2. Hs0578t cells were maintained under similar conditions, however DMEM containing high glucose was used and 10 ug/ml of insulin was added to the medium. Prior to each experiment, cells from stock flasks were suspended by treatment with 0.2% EDTA in phosphate buffered saline (pH 7.3). The cells were then centrifuged at 1000 rpm for 7 minutes, then resuspended in fresh medium and counted on a hemocytometer. Cells were adjusted to a density of 3.0×10^6 /plate in 5 mls of supplemented plating medium. After 5 hours, the plating medium was replaced with fresh medium containing either melatonin or the above examples in concentrations ranging from 10^-15 M to 10^-5 M. These compounds were initially dissolved in ethanol and diluted to the appropriate final concentration with DMEM; the final concentration of ethanol per plate was 0.005%. Control cells were exposed to the ethanol vehicle alone (0.005%). Five days after initial seeding, the cells were resuspended with PBS-EDTA and counted on a hemocytometer to determine the total cell counts per plate. Each experiment was run using triplicate plates for each concentration of melatonin or above example as well as the vehicle controls. Cell growth in each of the experimental plates was expressed as a percent of control growth (100%). A given concentration of either an above example or of melatonin was considered to be inhibitory if it decreased cell proliferation by 20% or more as compared with controls. Since most of the dose-response curves were irregular, the approximate IC50 for each example was estimated from a best fit (manually fitted) curve spanning from the 100% control growth level to the maximal inhibitory concentration of that example. Effects of the above examples on estrogen receptor positive and estrogen receptor negative human breast cancer cell lines (MCF-7 and Hs0578t, respectively) are summarized in FIGS. 1-15, and discussed below. FIGS. 1-6 summarize effects on the MCF-7 cell line, while FIGS. 7-15 describe effects on the Hs0578t cell line.

Hs0578t cells [3] = assay: growth inhibition of estrogen negative human breast cancer cell line Hs0578t in culture; type: cell-based; settings: for inhibition of Hs0578t cell growth, by concentration / IC50: 10^-15 M to 10^-5 M; for inhibition of Hs0578t cell growth, by concentration: inhibitory = proliferation decreased by 20% or more vs controls; for IC50: Homo sapiens, 120 h, approximate, estimated from manually fitted best fit curve, cell counts five days after seeding; for comparative assessment of potency / maximal inhibition, Hs0578t cell growth: summary statement
Description: as §1

frog skin = settings: Heward and Hadley 1975; cited from earlier work
chicken retina = settings: Dubocovich 1984; cited from earlier work
Hs0578t cells [4] = settings: reference molecule, known activity; high concentrations; cited from earlier work
mammary tumors = settings: melatonin administration; cited from earlier work
MCF-7 cells [5] = settings: reference molecule, known activity; cited from earlier work

## COc1cc2c(CCNC(C)=O)c(C)[nH]c2c(Cl)c1Cl [2-methyl-6,7-dichloromelatonin]
[1]
  metabolic stability: improved metabolic stability

## CC(=O)NCCn1c(C)ccc1C [Example #1]
MCF-7 cells [2]
  inhibition of MCF-7 cell growth, by concentration: all concentrations except 10^-11 M and 10^-7 M inhibited MCF-7 cell growth
Hs0578t cells [3]; 10^-9 M
  stimulation of Hs0578t cell growth: cell growth is actually stimulated at 10^-9 M
Hs0578t cells [3]
  inhibition of Hs0578t cell growth, by concentration: inhibition of Hs0578t cell growth only at 10^-5 M
  IC50: ~6 nM

## O=C(NCCc1c[nH]c2ccccc12)OCc1ccccc1 [Example #2, N-Benzyloxycarbonyltryptamine]
MCF-7 cells [2]
  inhibition of MCF-7 cell growth, by concentration: inhibition of MCF-7 cell growth at all concentrations for Examples #2 and 9, with the exceptions of Example #2 at 10^-13 M
  comparative assessment of potency / maximal inhibition, MCF-7 cell growth: elicits the best maximal inhibitory response; also recorded: highly potent inhibitor of both cell lines, but also induces in both a substantial inhibitory response at low concentrations
Hs0578t cells [3]
  inhibition of Hs0578t cell growth, by concentration: inhibits Hs0578t cell growth at 10^-11 M and 10^-9 M
  comparative assessment of potency / maximal inhibition, Hs0578t cell growth: highly potent inhibitor of both cell lines, but also induces in both a substantial inhibitory response at low concentrations

## COc1ccc2[nH]c3c(c2c1)CCN(C(C)=O)C3C (stereo not drawn) [Example #3, 1-Methyl-2-N-Acetyl-6-Methoxy-1,2,3,4-Tetrahydro-β-Carboline]
MCF-7 cells [2]
  inhibition of MCF-7 cell growth, by concentration: inhibited MCF-7 cell growth at all concentrations
Hs0578t cells [3]
  inhibition of Hs0578t cell growth, by concentration: All concentrations of these compounds were inhibitory to cell growth

## COc1ccc2[nH]c(Cc3ccccc3)c(CCNC(C)=O)c2c1 [Example #4, 2-Benzyl-3-Ethylacetamido-5-Methoxyindole]
MCF-7 cells [2]
  inhibition of MCF-7 cell growth, by concentration: All concentrations of Example #4 were inhibitory to cell growth
  potency relative to melatonin (times more potent), MCF-7 cell growth: 60 times
Hs0578t cells [3]
  inhibition of Hs0578t cell growth, by concentration: inhibits Hs0578t cell growth at 10^-13 M and 10^-7 M
  comparative assessment of potency / maximal inhibition, Hs0578t cell growth: appears to be the most potent inhibitor of Hs0578t cells

## CCC(=O)NCCc1c(Cc2ccccc2)[nH]c2ccccc12 [Example #5, 2-Benzyl-N-Propionyltryptamine]
MCF-7 cells [2]
  concentration at which the maximal effect was seen (MCF-7): 10^-5 M
  inhibition of MCF-7 cell growth, by concentration: inhibited cell growth at all concentrations except 10^-13 M, 10^-11 M and 10^-7 M
Hs0578t cells [3]
  inhibition of Hs0578t cell growth, by concentration: no inhibition of Hs0578t cell growth was observed

## CC(=O)N1CCc2c([nH]c3ccccc23)C1 [Example #6, 2-N-Acetyl-1,2,3,4-Tetrahydro-β-Carboline]
MCF-7 cells [2]
  inhibition of MCF-7 cell growth, by concentration: All concentrations except 10^-13 M and 10^-5 M were inhibitory to MCF-7 cell growth
  comparative assessment of potency / maximal inhibition, MCF-7 cell growth: appears to be the most potent inhibitor of MCF-7 cell growth

## CC(=O)N1CCc2c([nH]c3ccc(OCc4ccccc4)cc23)C1C (stereo not drawn) [Example #7, 1-Methyl-2-N-Acetyl-6-Benzyloxy-1,2,3,4-Tetrahydro-β-Carboline]
MCF-7 cells [2]
  inhibition of MCF-7 cell growth, by concentration: All concentrations of Example #7 were inhibitory
  potency relative to melatonin (times more potent), MCF-7 cell growth: 100 times
MCF-7 cells [2]; Homo sapiens, MCF7, at 10^-15 M, read-out: maximal effect, inhibition (MCF-7 cell growth)
  Emax at 1 fM: 37%
Hs0578t cells [3]
  inhibition of Hs0578t cell growth, by concentration: All concentrations of these compounds were inhibitory to cell growth, with the exception of Example #7 at 10^-11 M
  IC50: ~10 nM

## CC(=O)NCCc1c(Cc2ccccc2)[nH]c2ccccc12 [Example #8, 2-Benzyl-3-Ethylacetamidoindole]
Hs0578t cells [3]
  IC50: ~0.1 nM

## CC(=O)NCCc1c(Cc2cccc3ccccc23)[nH]c2ccccc12 [Example #9]
MCF-7 cells [2]
  inhibition of MCF-7 cell growth, by concentration: inhibition of MCF-7 cell growth at all concentrations for Examples #2 and 9, with the exceptions of Example #2 at 10^-13 M and Example #9 at 10^-13 M and 10^-5 M
Hs0578t cells [3]
  inhibition of Hs0578t cell growth, by concentration: inhibits Hs0578t cell growth at 10^-5 M and 10^-7 M
  IC50: ~4 nM
  comparative assessment of potency / maximal inhibition, Hs0578t cell growth: shows the best maximal inhibition of growth

## CC(=O)NCCc1c(Cc2ccc(C)cc2)[nH]c2ccccc12 [Example #10, 2-(4-Tolylmethyl)-3-Ethylacetamidoindole]
MCF-7 cells [2]
  inhibition of MCF-7 cell growth, by concentration: inhibits MCF-7 cell growth at 10^-15 M, 10^-13 M, and 10^-11 M
Hs0578t cells [3]
  inhibition of Hs0578t cell growth, by concentration: no inhibition of Hs0578t cell growth was observed

## COc1ccc(Cc2[nH]c3ccccc3c2CCNC(C)=O)cc1 [Example #11, 2-(4-Methoxyphenyl)Methyl-3-Ethylacetamidoindole]
MCF-7 cells [2]
  inhibition of MCF-7 cell growth, by concentration: inhibits MCF-7 cell growth at 10^-15 M and 10^-13 M
  comparative assessment of potency / maximal inhibition, MCF-7 cell growth: not only a highly potent compound, but it elicits an impressive maximal inhibitory response at a very low concentration
Hs0578t cells [3]
  inhibition of Hs0578t cell growth, by concentration: no inhibition of Hs0578t cell growth was observed

## CC(=O)NCCc1c[nH]c2ccc(O)cc12 [N-acetylserotonin]
Frog skin
  melatonin blocking activity (frog skin lightening): melatonin blocking activity

## CC(=O)NCCc1c[nH]c2ccccc12 [N-acetyltryptamine]
Chicken retina
  antagonism of inhibitory effect of melatonin in chicken retina: competitively antagonized the inhibitory effect of melatonin in the chicken retina
Frog skin
  melatonin blocking activity (frog skin lightening): melatonin blocking activity

## COc1ccc2[nH]cc(CCNC(C)=O)c2c1 [melatonin, 5-methoxy-N-actyltryptamine]
Hs0578t cells [4]
  inhibition of growth of estrogen negative cell lines such as Hs0578t: at high concentrations, can inhibit estrogen negative cell lines such as Hs0578t
Mammary tumors
  effect on mammary carcinogenesis: melatonin administration has been shown to inhibit
Hs0578t cells [3]
  inhibition of Hs0578t cell growth, by concentration: no inhibitory effect in most experiments
MCF-7 cells [5]
  inhibition of growth of estrogen positive cell lines: known to inhibit growth of estrogen positive cell lines
